US4693992A, “Bacitracin-metal-polyether antibiotic complexes” (International Minerals & Chemical Corp., priority 1985, dated 1987)

How the values were obtained:
[1] = tested on: Eimeria tenella; experiment: Anticoccidial activity in chickens inoculated with Eimeria tenella oocysts (Example 11); format: in vivo; conditions: for Incidence of Bloody Droppings / Morbidity: 4th-6th day; for Morbidity: birds affected/birds in group; for Mortality: 4th-7th day, birds dead/birds in group; for F/G Day 0-3 / F/G Day 4-10: feed per gain
Description: (§1) This example describes experimental testing of complexes of this invention for anticoccidial activity. Anticoccidial activities of test compounds were determined by administering the compounds (in feed) to chickens inoculated with active oocysts of Eimeria tenella. The test compounds, which are listed in Table 1 below, included four bacitracin-metal-polyether antibiotic complexes prepared according to the procedures described above. In addition, sodium lysocellin, regular bacitracin, sodium monensin, sodium lasolocid, and unmedicated inoculated and noninoculated controls were included for comparative purposes.
(§2) The test animals were Hubbard White Mountain male chicken (broiler strain) that were 5 days old at the beginning of the test. Each experimental compound was administered in a chick starter diet (Table 2) at a level of 80 g/ton and 120 g/ton. At 7 days of age, chicks were individually weighed, banded, and started on their respective treatments. Each treatment was replicated three times with five birds per replicate for a total of 15 birds per group. The test period was 10 days.
Seventy-two hours after the initiation of medication, birds were reweighed and orally inoculated with approximately 100,000 Eimeria tenella oocysts suspended in a 1 cc dose of saline. The following criteria were then evaluated over the next seven days: […]
a. morbidity (4th-6th day) b. mortality (4th-7th day) c. incidence of bloody droppings (4th-6th day)

[2] = tested on: Eimeria tenella; experiment: Anticoccidial activity in chickens inoculated with Eimeria tenella (Example 12); format: in vivo, chicken; conditions: for Cecal bleeding associated with E. tenella infections: 80 gram per ton; for weight gains compared with those of test compound 5 and lasalocid: 80 gram per ton (lasalocid 24 gram per ton)
Description: as §1, §2
Seventy-two hours after the initiation of medication, birds were reweighed and orally inoculated with approximately 100,000 Eimeria tenella oocysts suspended in a 1 cc dose of saline. The following criteria were then evaluated over the next seven days:
A satisfactory challenge was obtained with Eimeria tenella.

[3] = tested on: buffered rumen fluid; experiment: Rumen screen, in vitro ruminal volatile fatty acid ratio (Examples 15, 16); format: cell-based, steer; conditions: 10 ppm, Neg. Control 1.39
Description: Rumen fluid was removed from a fistulated steer and strained through a cheesecloth. An equal amount of pH 7 buffer was added to strained rumen fluid. After layering occurred, the lower layer was saved and again diluted with equal amount of buffer. Ten ml. portions of buffered rumen fluid were added to fermentation vessels containing 500 mg. fresh finely ground cattle ration, 1 mg cellubiose and a test compound listed in Table 1 below at the indicated concentration. The fermentation vesels were outfitted with one-way gas valves, placed in an incubator and shaken for 24 hours at 38° C. Fermentation was stopped by addition of 1 ml mercuric chloride. The liquid was decanted and analyzed for volatile fatty acids by gas chromatography. Test results are summarized in Table 1, wherein Bac=bacitracin.
The procedures of Example 15 were repeated in all essential details with the test compounds and concentrations listed in Table 1 below, as are the results of the test.

[4] = Weight gain and feed utilization efficiency in chicks, 11 days (Example 13); format: in vivo, chicken; parameters: key to Average Weight: average weight in grams; conditions: .00275% in rye basal diet
Description: (§3) This example describes experimetnal testing of complexes of the present invention as feed additives for improving weight gain or feed utilization efficiency in birds. Test animals were male meat-type chickens (Hubbard strain). Fluorescent room lights were on a 16 hours light/8 hours dark schedule. The chicks were allotted to the pens on the basis of weight classes, and chicks in the even numbered pens were wing banded. Group weights were obtained at the start and individual weights at the termination of the experiment. Chicks weighing between 55 and 65 grams were selected for the test. The test compounds were blended with a basal feed ration (shown in Table 2) at the indicated concentration. Birds fed […] and feed supplemented with zinc bacitracin (Baciferm® 50, International Minerals and Chemical Corp.) were used as controls. The test was continued for 11 days, after which individual weights, pen weight and feed consumption were recorded and analyzed.

[5] = Weight gain and feed utilization in chicks, 12 days (Example 14); format: in vivo, chicken; conditions: .0066% in feed
Description: as §3
All of the bacitracin-metal-polyether antibiotic complexes tested produced statistically significant increases in gains compared to the unmedicated basal ration.
The test involving test compounds 1 and 3-14 consisted of 5 replicates of 7 chicks and those involving test compound 2 consisted of 6 replicates of 7 chicks. The tests were continued for 12 days, after which individual weight gains and feed conusumption were recorded and analyzed.

[6] = 14 g/ton Lasalocid (Approx.), regrouped part of Table 2
[7] = 36 g/ton Lasalocid (Approx.), regrouped part of Table 2

## Bacitracin-Cobalt-Lysocellin Complex [Example 1]
[1]; 80 g/ton in feed
  Incidence of Bloody Droppings: Severe
  Morbidity: 10/15
  Mortality: 0/15
  Gain, Grams Day 0-3: 58.4 Grams
  Gain, Grams Day 4-10: 196.5 Grams
  F/G Day 0-3: 1.75
  F/G Day 4-10: 1.71
[1]; 120 g/ton in feed
  Incidence of Bloody Droppings: Moderate
  Morbidity: 4/15
  Mortality: 0/15
  Gain, Grams Day 0-3: 54.1 Grams
  Gain, Grams Day 4-10: 209.1 Grams
  F/G Day 0-3: 1.81
  F/G Day 4-10: 1.66
[2]; [6]
  Cecal Bleeding: Severe
  Gain/Bird Days 0-3: 61.6
  Gain/Bird Days 4-10: 180.1
[2]; [7]
  Cecal Bleeding: Slight
  Feed/Gain Days 0-3: 1.65
  Gain/Bird Days 0-3: 59.0
  Gain/Bird Days 4-10: 188.4
[2]; 80 g/ton in feed
  Incidence of Bloody Droppings: Severe
  Morbidity: 6/15
  Mortality: 0/15
  F/G Day 0-3: 1.62
  Gain/Bird Grams Day 0-3: 61.6 Grams
  F/G Day 4-10: 1.86
  Gain/Bird Grams Day 4-10: 180.1 Grams
[2]
  Cecal bleeding associated with E. tenella infections: severe
  weight gains compared with those of test compound 5 and lasalocid: appreciably higher
[2]; 120 g/ton in feed
  Incidence of Bloody Droppings: Slight-
  Morbidity: 4/15
  Mortality: 0/15
  F/G Day 0-3: 1.64
  Gain/Bird Grams Day 0-3: 59.0 Grams
  F/G Day 4-10: 1.78
  Gain/Bird Grams Day 4-10: 188.4 Grams
[2]; 120 grams per ton
  anticoccidial activity (in words): good anticoccidial activity
[3]; Example 15, 24 hours at 38° C.
  A/P Ratio: 1.10

## Bacitracin-Nickel-Lysocellin Complex [Example 4]
[4]; 11 days
  Average Gain: 217 g
  Gain/Feed Ratio: 62.8
[4]; Table 4
  Average Weight: 277.0
  Gain/Feed: 62.8
[4]; unmedicated = 100
  Average Gain Index: 105.4
  Gain/Feed Ratio Index: 98.5
[5]; 12 days
  Gain/Feed Data: .585
  Gains/gram Data: 197.2 gram
[5]; #1 = unmedicated
  Gain/Feed Index Relative to #1: 103.9
  Gains Index Relative to #1: 106.5
[5]; #2 = zinc bacitracin
  Gain/Feed Index Relative to #2: 98.2
  Gains Index Relative to #2: 94.1
[1]; 80 and 120 g/ton
  protection against cecal bleeding: only fair
[1]; 80 and 120 g/ton, this test
  bleeding: slight bleeding
[1]; 80 and 120 g/ton, mild E. tenella challenge
  anticoccidial activity (in words): performed well
[1]; 80 g/ton in feed
  Incidence of Bloody Droppings: Slight
  Morbidity: 2/15
  Mortality: 0/15
  Gain, Grams Day 0-3: 60.8 Grams
  Gain, Grams Day 4-10: 229.1 Grams
  F/G Day 0-3: 1.70
  F/G Day 4-10: 1.59
[1]; 120 g/ton in feed
  Incidence of Bloody Droppings: Slight
  Morbidity: 1/15
  Mortality: 1/15
  Gain, Grams Day 0-3: 58.6 Grams
  Gain, Grams Day 4-10: 227.7 Grams
  F/G Day 0-3: 1.70
  F/G Day 4-10: 1.59
[1]; 200 g/ton, in C-760 (another test)
  bleeding: no bleeding
[2]; [6]
  Cecal Bleeding: Severe
  Gain/Bird Days 0-3: 63.3
  Gain/Bird Days 4-10: 164.1
[2]; [7]
  Cecal Bleeding: Slight-Moderate
  Gain/Bird Days 0-3: 59.5
  Gain/Bird Days 4-10: 187.4
[2]; 80 g/ton in feed
  Incidence of Bloody Droppings: Severe
  Morbidity: 9/15
  Mortality: 0/15
  F/G Day 0-3: 1.61
  Gain/Bird Grams Day 0-3: 63.3 Grams
  F/G Day 4-10: 1.91
  Gain/Bird Grams Day 4-10: 164.1 Grams
[2]
  Cecal bleeding associated with E. tenella infections: severe
  weight gains compared with those of test compound 5 and lasalocid: appreciably higher
[2]; 120 g/ton in feed
  Morbidity: 5/15
  Mortality: 0/15
  F/G Day 0-3: 1.69
  Gain/Bird Grams Day 0-3: 59.5 Grams
  F/G Day 4-10: 1.72
  Gain/Bird Grams Day 4-10: 187.4 Grams
[3]; Example 15, 24 hours at 38° C.
  A/P Ratio: 1.10
[3]; Example 16
  A/P Ratio: .88
